Test results published in patent publication EP4417607A1, “HETEROCYCLIC COMPOUND AS SOS1 INHIBITOR AND USES THEREOF” (Nanjing Zaiming Pharmaceutical Co., Ltd., priority 2021, dated 2023).

What follows are compounds tested on p-ERK pathway in H358 cells (assay: p-ERK pathway inhibition in H358 cells (Advanced phospho-ERK (Thr202/Tyr204) cellular kit, HTRF)). Settings: Homo sapiens, NCI-H358, 1 h compound incubation.
Type: cell-based
Method: The effect of the compounds of the present invention on H358 cell p-ERK pathway was assessed by Advanced phospho-ERK (Thr202/Tyr204) cellular kit method.
The experimental procedures were summarized as follows: H358 cells (ATCC, CRL-5807) were cultured in RPMI1640 (ThermoFisher, A1049101) complete medium containing 10% FBS (Gibco, 10100147) and 100 U/mL penicillin-streptomycin mixed solution (Gibco, 15140163). When the coverage of the cells in the culture vessel reached 80-90%, the cells were pipetted and seeded in a 96-well plate (Corning, 3599) at 50000 cells/well (90 µL RPMI1640 complete medium), and the plate was left to stand for 5 min, cultured in an incubator at 37 °C with 5% CO2 for 6 h, replaced with a serum-free RPMI1640, and starved overnight.
After incubation overnight, 10 µL of a diluted test compound was added to each well using a multi-channel pipette, and the 96-well plate was cultured in an incubator at 37 °C with 5% CO2 for 1 h. The supernatant was poured. The cells were washed once with PBS. 50 µL of a lysis buffer (Advanced phospho-ERK (Thr202/Tyr204) cellular kit, 64AERPEH) was added to each well. The plate was shaken at room temperature at 450 rpm for 1 h. After the cells were completely lysed, 16 µL of the supernatant was added to a 384-well plate (PE, 6007299), mixed energy donor Eu and energy acceptor D2 (D2/Eu = 1:1) were added, and the plate was incubated at room temperature for 4 h. HTRF on the microplate reader was selected for plate reading, Ratio = Signal 665 nm/Signal 620 nm × 10^4. In this experiment, the cell-free group (replaced with 1640 medium) was used as the 100% inhibition group, and the compound-free group in which the cell was added was used as the 0% inhibition group.
The inhibition percentage of H358 cell p-ERK pathway by the compounds of the present invention could be calculated by the following formula: [formula]
IC50 values of the compounds were calculated from 8 concentration points using XLfit (ID Business Solutions Ltd., UK) software by the following formula: Y = Bottom + (Top−Bottom)/(1+10^(∧)((logIC50−X)×slopefactor)) [formula]
Y is the inhibition percentage, X is the logarithmic value of the concentration of the test compound, Bottom is the minimum inhibition percentage, Top is the maximum inhibition percentage, and slope factor is the slope coefficient of the curve. The default fitted curve was used to fit the slope of the S-shaped curve to determine the IC50 value. Table 2. Results of p-ERK inhibition test by the compounds of the present invention

| Structure (SMILES) | IC50 |
| --- | --- |
| Cc1nc(N[C@H](C)c2cccc(S(F)(F)(F)(F)F)c2)c2cn(N3CCOCC3)c(=O)cc2n1 [Example 18, (R)-2-methyl-6-morpholine-4-((1-(3-(pentafluoro-λ^6-sulfanyl)phenyl)ethyl)amino) pyrido[4,3-d]pyrimidine-7(6H)-one] | 79.8 nM |
| Cc1nc(N[C@H](C)c2cccc(C(F)F)c2F)c2cn(C3(CF)CC3)c(=O)c(N3C[C@H]4C[C@@H]3CO4)c2n1 [Example 53, 8-((1R,4R)-2-oxa-5-azabicyclo[2.2.1]heptan-5-yl)-4-(((R)-1-(3-(difluoromethyl)-2-fluorophenyl)ethyl)amino)-6-(1-(fluoromethyl)cyclopropyl)-2-methylpyrido[4,3-d]pyrimidine-7(6H)-one] | 176 nM |
| COc1c(=O)n(N2CCOCC2)cc2c(N[C@H](C)c3cccc([N+](=O)[O-])c3C)nc(C)nc12 [Example 24, (R)-4-((1-(2-methyl-3-nitrophenyl)ethyl)amino)-8-methoxy-2-methyl-6-morpholinepyrido[4,3-d]pyrimidine-7(6H)-one] | 70.4 nM |
| Cc1nc(N[C@H](C)c2cccc(C(F)F)c2F)c2cn(N3CCOCC3)c(=O)c(N3CCO[C@@H](C)C3)c2n1 [Example 79] | 79.3 nM |
| Cc1nc(N[C@H](C)c2cccc(C#N)c2C)c2cn(N3CCOCC3)c(=O)c(N3CCN4C(=O)OC[C@H]4C3)c2n1 [Example 99, 2-methyl-3-((R)-1-((2-methyl-6-morpholine-7-oxo-8-((R)-3-oxotetrahydro-3H-oxazolo[3,4-a]pyrazin-7(1H)-yl)-6,7-dihydropyrido[4,3-d]pyrimidin-4-yl)amino)ethyl)benzonitrile] | 112 nM |
| Cc1nc(N[C@H](C)c2cccc(C(F)F)c2F)c2cn(C3(CF)CC3)c(=O)c(N3C4CCC3COC4)c2n1 [Example 44, 8-(3-oxa-8-azabicyclo[3.2.1]oct-8-yl)-4-(((R)-1-(3-(difluoromethyl)-2-fluorophenyl)ethyl)amino)-6-(1-(fluoromethyl)cyclopropyl)-2-methylpyrido[4,3-d]pyrimidine-7(6H)-one] | 131 nM |
| Cc1nc(N[C@H](C)c2cccc(C(F)F)c2F)c2cn(C3(CF)CC3)c(=O)c(N3CC(C)(C#N)C3)c2n1 [Example 75, (R)-1-(4-((1-(3-(difluoromethyl)-2-fluorophenyl)ethyl)amino)-6-(1-(fluoromethyl)cyclopropyl)-2-methyl-7-oxo-6,7-dihydropyrido[4,3-d]pyrimidin-8-yl)-3-methylazetidine-3-carbonitrile] | 171 nM |

Further compounds by falling IC50, results first:

| IC50 | Structure (SMILES) |
| --- | --- |
| 127 nM | Cc1nc(N[C@H](C)c2cccc(C(F)F)c2F)c2cn(C3(CF)CC3)c(=O)c(-c3cnc4cnn(C)c4c3)c2n1 [Example 129, (R)-4-((1-(3-(difluoromethyl)-2-fluorophenyl)ethyl)amino)-6-(1-(fluoromethyl)cyclopropyl)-2-methyl-8-(1-methyl-1H-pyrazolo[4,3-b]pyridin-6-yl)pyrido[4,3-d]pyrimidine-7(6H)-one] |
| 121 nM | Cc1nc(N[C@H](C)c2cccc(C(F)F)c2F)c2cn(C3(CF)CC3)c(=O)c(N3CCC(F)(F)CC3)c2n1 [Example 169] |
| 111 nM | Cc1nc(N[C@H](C)c2cccc(C(F)F)c2F)c2cn(C3(CF)CC3)c(=O)c(-c3c(C)noc3C)c2n1 [Example 123, (R)-4-((1-(3-(difluoromethyl)-2-fluorophenyl)ethyl)amino)-8-(3,5-dimethylisoxazol-4-yl)-6-(1-(fluoromethyl)cyclopropyl)-2-methylpyrido[4,3-d]pyrimidine-7(6H)-one] |
| 77.2 nM | CNc1c(=O)n(C2(CF)CC2)cc2c(N[C@H](C)c3cccc(C(F)F)c3F)nc(C)nc12 [Example 77] |
| 43.9 nM | Cc1nc(N[C@H](C)c2cccc(C#N)c2C)c2cn(N3CCOCC3)c(=O)c(-c3ccnc(N4CCOCC4)c3)c2n1 [Example 163] |
